Our source for the IC50 values is US10472356B2, “Bicyclic ketone sulfonamide compounds” (AMGEN INC., priority 2015, dated 2019).

Format in all cases: cell-based
For test [1], the target named is T1, human Nav1.7 (Homo sapiens, UniProt Q15858).
T1 construct: expressed in transfected cells; host or cells: HEK293
The experiment in a line: Nav 1.7 IWQ In Vitro Assay (IonWorks Quattro). Particulars: HEK293 cells stably transfected with human Nav 1.7; IonWorks Quattro population patch-clamp; 26th pulse to −20 mV, 5 Hz; cells unclamped 5 to 8 minutes with compound; read-out: hNav1.7 IWQ IC50. The procedure:
Nav 1.7 or Nav 1.5 IWQ In Vitro Assay
HEK293 cells stably transfected with either human Nav 1.7 or human Nav 1.5 were recorded in population patch-clamp mode with the IonWorks® Quattro automated electrophysiology system (Molecular Devices, LLC, Sunnyvale, Calif.). Cells were voltage clamped to −110 mV for three seconds (Nav 1.7) or half a second (Nav 1.5) and sodium currents were elicited by a train of 26 depolarizations of 150 msec duration to −20 mV (Nav 1.7) or 0 mV (Nav 1.5) at a frequency of 5 Hz. Cells were then left unclamped for a period of 5 to 8 minutes while a single concentration of test compound was added. Following this compound incubation period, cells were then reclamped to −110 mV for three seconds (Nav1.7) or half a second (Nav1.5) to recover unbound channels and put through the same 26 pulse voltage protocol as above. Peak inward current during the 26th pulse to −20 mV (Nav 1.7) or 0 mV (Nav 1.5) in the presence of compound was divided by the peak inward current evoked by the 26th pulse to −20 mV (Nav1.7) or 0 mV (Nav1.5) in the absence of compound to determine percent inhibition. Concentration-response curves of percent.
(In patch-clamp work, channel activity is measured electrically.)

The target in test [2] is T1, human Nav1.7. The experiment in a line: Nav 1.7 IWB In Vitro Assay (IonWorks Barracuda). The note with it: HEK293 cells stably transfected with human Nav 1.7; IonWorks Barracuda population patch-clamp; cells clamped to −20 mV for 4 minutes with compound; 26th pulse; read-out: hNav1.7 IWB IC50. The essentials:
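IC50 derived from concentration-response of percent block of the 26th-pulse peak inward current, compound vs none. Protocol: stable human Nav 1.7 HEK293 cells on automated population patch clamp, held at −110 mV, 5 Hz train of 150 ms steps to −20 mV, 4 min compound exposure depolarized at −20 mV, 3 s repolarization, train repeated.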

In test [3] the target is T1, human Nav1.7. The experiment in a line: Nav 1.7 In Vitro PatchXpress (PX) Assay. The note with it: HEK 293 cells stably transfected with human Nav1.7; PatchXpress whole cell voltage clamp; partially inactivated state (holding potential yielding 20 to 50% inactivation); read-out: hNav1.7 PX IC50. The essentials:
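Percent inhibition of peak sodium current taken after 3 min exposure to one compound concentration, 3–5 cells each, with IC50 curve fits. Partially inactivated channels (20–50% inactivation at holding potential) in Nav1.7-HEK 293 cells, activated by 20 ms steps to −10 mV every 10 s.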

T1 sequence (Q15858 whole entry): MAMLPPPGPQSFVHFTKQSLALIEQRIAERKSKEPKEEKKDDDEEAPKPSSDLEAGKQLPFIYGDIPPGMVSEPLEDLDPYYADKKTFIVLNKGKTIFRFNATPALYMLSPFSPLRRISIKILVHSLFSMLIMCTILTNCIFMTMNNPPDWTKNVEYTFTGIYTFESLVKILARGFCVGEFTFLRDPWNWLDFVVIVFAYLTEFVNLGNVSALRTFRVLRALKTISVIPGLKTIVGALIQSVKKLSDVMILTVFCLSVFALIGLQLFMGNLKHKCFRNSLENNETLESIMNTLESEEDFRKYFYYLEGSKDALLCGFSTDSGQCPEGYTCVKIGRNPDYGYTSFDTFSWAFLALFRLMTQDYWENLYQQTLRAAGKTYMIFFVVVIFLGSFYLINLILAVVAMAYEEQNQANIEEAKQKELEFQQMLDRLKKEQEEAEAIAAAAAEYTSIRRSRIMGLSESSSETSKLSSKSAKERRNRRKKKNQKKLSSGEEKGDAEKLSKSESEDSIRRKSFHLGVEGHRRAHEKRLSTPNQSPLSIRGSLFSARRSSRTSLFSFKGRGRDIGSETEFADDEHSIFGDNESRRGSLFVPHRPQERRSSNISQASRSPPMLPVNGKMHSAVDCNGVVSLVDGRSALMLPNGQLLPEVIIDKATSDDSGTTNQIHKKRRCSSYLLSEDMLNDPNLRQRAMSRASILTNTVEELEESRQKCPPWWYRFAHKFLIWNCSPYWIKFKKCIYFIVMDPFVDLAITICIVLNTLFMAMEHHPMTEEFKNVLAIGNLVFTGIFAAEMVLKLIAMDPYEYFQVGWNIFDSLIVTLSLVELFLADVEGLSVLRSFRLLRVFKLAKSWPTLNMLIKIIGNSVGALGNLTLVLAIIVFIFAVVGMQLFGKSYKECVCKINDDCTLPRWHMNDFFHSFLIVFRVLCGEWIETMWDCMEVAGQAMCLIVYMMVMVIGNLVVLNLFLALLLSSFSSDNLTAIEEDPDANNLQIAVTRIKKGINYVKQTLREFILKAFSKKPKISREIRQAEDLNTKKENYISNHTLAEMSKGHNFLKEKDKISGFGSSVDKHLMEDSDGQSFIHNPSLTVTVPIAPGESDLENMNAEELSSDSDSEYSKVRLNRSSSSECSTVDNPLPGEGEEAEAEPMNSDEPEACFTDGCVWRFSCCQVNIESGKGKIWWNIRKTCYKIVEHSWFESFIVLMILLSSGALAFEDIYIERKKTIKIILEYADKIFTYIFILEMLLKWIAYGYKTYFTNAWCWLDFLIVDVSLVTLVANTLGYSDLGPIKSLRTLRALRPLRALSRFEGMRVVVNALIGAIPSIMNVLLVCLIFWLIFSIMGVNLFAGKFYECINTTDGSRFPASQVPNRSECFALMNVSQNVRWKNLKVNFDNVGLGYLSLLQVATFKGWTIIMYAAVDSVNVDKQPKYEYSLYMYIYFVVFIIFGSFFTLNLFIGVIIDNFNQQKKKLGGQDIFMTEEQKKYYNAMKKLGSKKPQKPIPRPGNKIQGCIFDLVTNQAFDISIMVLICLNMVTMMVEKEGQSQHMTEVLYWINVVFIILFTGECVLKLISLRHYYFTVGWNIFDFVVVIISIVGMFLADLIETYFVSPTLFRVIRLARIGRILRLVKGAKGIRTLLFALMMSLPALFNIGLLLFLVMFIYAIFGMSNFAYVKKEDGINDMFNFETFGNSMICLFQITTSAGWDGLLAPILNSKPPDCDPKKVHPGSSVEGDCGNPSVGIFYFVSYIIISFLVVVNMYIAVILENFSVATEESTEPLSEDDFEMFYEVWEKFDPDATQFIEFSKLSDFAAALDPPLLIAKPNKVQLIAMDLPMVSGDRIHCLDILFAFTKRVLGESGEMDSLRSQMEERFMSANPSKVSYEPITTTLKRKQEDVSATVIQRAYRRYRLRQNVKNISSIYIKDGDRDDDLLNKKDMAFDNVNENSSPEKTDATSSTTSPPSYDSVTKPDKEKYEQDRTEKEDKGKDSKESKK

Take `COc1cc(-c2cc(OC)c(-n3c4c(ccc3=O)CN(S(=O)(=O)Nc3ccon3)CC4)cc2F)ccc1C` (racemic) [Example 58-(Rac), (Rac)-1-(2-fluoro-3′,5-dimethoxy-4′-methyl-4-biphenylyl)-N-3-isoxazolyl-2-oxo-1,5,7,8-tetrahydro-1,6-naphthyridine-6(2H)-sulfonamide]: the IC50 was determined as 12.3 nM in test [1], 24.1 nM in test [2] and 78 nM in test [3].

As to `COc1cc(-c2cc(F)cc(F)c2)c(F)cc1-n1c2c(ccc1=O)CN(S(=O)(=O)Nc1cccc(F)n1)CC2` (racemic) [Example 14-(Rac), (Rac)-N-(6-fluoro-2-pyridinyl)-2-oxo-1-(2,3′,5′-trifluoro-5-methoxy-4-biphenylyl)-1,5,7,8-tetrahydro-1,6-naphthyridine-6(2H)-sulfonamide], the IC50 in test [1] came to 44.4 nM; in test [2], 25.6 nM; in test [3] it was 74.2 nM.

Take `COc1cc(-c2cc(OC)c(-n3c4c(ccc3=O)CN(S(=O)(=O)Nc3cccnn3)CC4)cc2F)ccc1Cl` (single isomer, unassigned) [Example 2-M, M-1-(4′-chloro-2-fluoro-3′,5-dimethoxy-4-biphenylyl)-2-oxo-N-3-pyridazinyl-1,5,7,8-tetrahydro-1,6-naphthyridine-6(2H)-sulfonamide]: the half-maximal inhibitory concentration (IC50) stood at 255 nM in test [1], 132 nM in test [2] and 5530 nM in test [3].

For the compound `COc1cc(-c2cc(Cl)cc(OC(F)(F)F)c2)c(F)cc1-n1c2c(ccc1=O)CN(S(=O)(=O)Nc1cccnn1)CC2` [Example 77, P-1-(3′-chloro-2-fluoro-5-methoxy-5′-(trifluoromethoxy)-[1,1′-biphenyl]-4-yl)-2-oxo-N-(pyridazin-3-yl)-1,2,7,8-tetrahydro-1,6-naphthyridine-6(5H)-sulfonamide], the IC50 worked out at 1.3 nM in test [1], 4.4 nM in test [2] and 40.5 nM in test [3].

As for `COc1cc(-c2cc(Cl)ccc2C)c(F)cc1-n1c2c(ccc1=O)CN(S(=O)(=O)Nc1ccon1)CC2` (single isomer, unassigned) [Example 9-P, P-1-(5′-chloro-2-fluoro-5-methoxy-2′-methyl-4-biphenylyl)-N-3-isoxazolyl-2-oxo-1,5,7,8-tetrahydro-1,6-naphthyridine-6(2H)-sulfonamide], the IC50 amounted to 2.1 nM in test [1], 3.1 nM in test [2] and 18 nM in test [3].

On to `COc1cc(-c2cc(F)cc(Cl)c2)c(F)cc1-n1c2c(ccc1=O)CN(S(=O)(=O)Nc1ncccn1)CC2` (racemic) [Example 31, (Rac)-1-(3′-chloro-2,5′-difluoro-5-methoxy-4-biphenylyl)-2-oxo-N-2-pyrimidinyl-1,5,7,8-tetrahydro-1,6-naphthyridine-6(2H)-sulfonamide], for which the 50% inhibitory concentration (IC50) in test [1] worked out at 28.1 nM; in test [2] it was 36.2 nM; in test [3], 137 nM.

`COc1cc(OC)cc(-c2cc(OC)c(-n3c4c(ccc3=O)CN(S(=O)(=O)Nc3ccon3)CC4)cc2F)c1` [Example 90, P-1-(2-fluoro-3′,5,5′-trimethoxy-[1,1′-biphenyl]-4-yl)-N-(isoxazol-3-yl)-2-oxo-1,2,7,8-tetrahydro-1,6-naphthyridine-6(5H)-sulfonamide]: the values for the IC50 in test [1], in test [2] and in test [3] were 3.2 nM, 36.5 nM and 164 nM, respectively.

For the compound `COc1cc(-c2cc(OC)c(-n3c4c(ccc3=O)CN(S(=O)(=O)Nc3ccon3)CC4)cc2F)ccc1Cl` (racemic) [Example 15-(Rac), (Rac)-1-(4′-chloro-2-fluoro-3′,5-dimethoxy-4-biphenylyl)-N-3-isoxazolyl-2-oxo-1,5,7,8-tetrahydro-1,6-naphthyridine-6(2H)-sulfonamide], the figures for the IC50 in test [1], in test [2] and in test [3] were 121 nM, 8.1 nM and 21.8 nM, respectively.

As for `COc1cc(-c2cccc(OCC(F)(F)F)c2)c(F)cc1-n1c2c(ccc1=O)CN(S(=O)(=O)Nc1cccnn1)CC2` [Example 68, P-1-(2-fluoro-5-methoxy-3′-(2,2,2-trifluoroethoxy)-[1,1′-biphenyl]-4-yl)-2-oxo-N-(pyridazin-3-yl)-1,2,7,8-tetrahydro-1,6-naphthyridine-6(5H)-sulfonamide], the IC50 in test [1] was 2.4 nM; in test [2] it was 5.3 nM; in test [3] it was 74.2 nM.

For `COc1cc(-c2ccc(F)c(F)c2)c(F)cc1-n1c2c(ccc1=O)CN(S(=O)(=O)Nc1cccnn1)CC2` (racemic) [Example 32-(Rac), (Rac)-2-oxo-N-3-pyridazinyl-1-(2,3′,4′-trifluoro-5-methoxy-4-biphenylyl)-1,5,7,8-tetrahydro-1,6-naphthyridine-6(2H)-sulfonamide], the half-inhibitory concentration (IC50) in test [1] was determined as 23.7 nM; in test [2], 30.5 nM; in test [3] it was 161 nM.

In the case of `COc1cc(-c2cccc(OC(F)F)c2)c(F)cc1-n1c2c(ccc1=O)CN(S(=O)(=O)Nc1ccon1)CC2` (single isomer, unassigned) [Example 19-P, P-1-(3′-(difluoromethoxy)-2-fluoro-5-methoxy-4-biphenylyl)-N-3-isoxazolyl-2-oxo-1,5,7,8-tetrahydro-1,6-naphthyridine-6(2H)-sulfonamide], the half-maximal inhibitory concentration (IC50) in test [1] is 5 nM; in test [2], 7.4 nM; in test [3], 33.3 nM.

On to `COc1cc(-c2cccc(C(F)(F)F)c2)c(F)cc1-n1c2c(ccc1=O)CN(S(=O)(=O)Nc1ccon1)CC2` (single isomer, unassigned) [Example 16-P, P-1-(2-fluoro-5-methoxy-3′-(trifluoromethyl)-4-biphenylyl)-N-3-isoxazolyl-2-oxo-1,5,7,8-tetrahydro-1,6-naphthyridine-6(2H)-sulfonamide], for which the IC50 in test [1] worked out at 2.6 nM; in test [2], 2.4 nM; in test [3], 15.8 nM.

In the case of `COc1cc(-c2cc(F)cc(Cl)c2)c(F)cc1-n1c2c(ccc1=O)CN(S(=O)(=O)Nc1cccnn1)CC2` (racemic) [Example 38-(Rac), (Rac)-1-(3′-chloro-2,5′-difluoro-5-methoxy-4-biphenylyl)-2-oxo-N-3-pyridazinyl-1,5,7,8-tetrahydro-1,6-naphthyridine-6(2H)-sulfonamide], the IC50 came to 16.7 nM in test [1], 10.2 nM in test [2] and 87.8 nM in test [3].

For `COc1cc(-c2cc(F)cc(Cl)c2)c(F)cc1-n1c2c(ccc1=O)CN(S(=O)(=O)Nc1ccc(F)cn1)CC2` (single isomer, unassigned) [Example 12-P, P-1-(3′-chloro-2,5′-difluoro-5-methoxy-4-biphenylyl)-N-(5-fluoro-2-pyridinyl)-2-oxo-1,5,7,8-tetrahydro-1,6-naphthyridine-6(2H)-sulfonamide], the IC50 in test [1] is 56.6 nM; in test [2], 52.5 nM; in test [3] it was 44.5 nM.

`COc1cc(-c2cccc(OC(F)F)c2)c(F)cc1-n1c2c(ccc1=O)CN(S(=O)(=O)Nc1ccon1)CC2` (racemic) [Example 19-(Rac), (Rac)-1-(3′-(difluoromethoxy)-2-fluoro-5-methoxy-4-biphenylyl)-N-3-isoxazolyl-2-oxo-1,5,7,8-tetrahydro-1,6-naphthyridine-6(2H)-sulfonamide]: the 50% inhibitory concentration (IC50) in test [1] was found to be 5.5 nM; in test [2], 15.6 nM; in test [3], 117 nM.

Take `COc1cc(-c2cc(F)cc(Cl)c2)c(F)cc1-n1c2c(ccc1=O)CN(S(=O)(=O)Nc1ccc(F)cn1)CC2` (racemic) [Example 12-(Rac), (Rac)-1-(3′-chloro-2,5′-difluoro-5-methoxy-4-biphenylyl)-N-(5-fluoro-2-pyridinyl)-2-oxo-1,5,7,8-tetrahydro-1,6-naphthyridine-6(2H)-sulfonamide]: the values for the IC50 in test [1], in test [2] and in test [3] were 81.5 nM, 91.3 nM and 106 nM, respectively.

On to `COc1cc(-c2cc(F)cc(Cl)c2)c(F)cc1-n1c2c(ccc1=O)CN(S(=O)(=O)Nc1ccnc(C)n1)CC2` (single isomer, unassigned) [Example 6-P, P-1-(3′-chloro-2,5′-difluoro-5-methoxy-4-biphenylyl)-N-(2-methyl-4-pyrimidinyl)-2-oxo-1,5,7,8-tetrahydro-1,6-naphthyridine-6(2H)-sulfonamide], for which the IC50 stood at 25.4 nM in test [1], 64.8 nM in test [2] and 269 nM in test [3].

For orientation: IC50 means the concentration at which inhibition is half-maximal.
